Data as given in PubChem BioAssay AID1919004 (Molecular Pharmacology Branch, DTP, NCI, 2023).

System: 883617-216-R-J1-PDC complex spheroids, growth, % test/control
Test: Anticancer human tumor 883617-216-R-J1-PDC patient-derived bladder carcinoma cell line growth inhibition [AhR]
Details: for IC50: curve of first compound; for viability, T/C: stronger effect = lower value
Outline: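 Complex tumor spheroids co-cultured with HUVEC and human MSC stroma; AhR antagonists tested in combination with standard-of-care and investigational agents. Top concentration at or near clinical Cmax (else 10 microM), half-log dilutions; growth expressed as percent test/control.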

[1] = second compound 0.1 µM, first compound 0.0316 µM
[2] = second compound 0.1 µM, first compound 0.1 µM
[3] = second compound 0.316 µM, first compound 0.0316 µM
[4] = second compound 0.316 µM, first compound 0.1 µM
[5] = second compound 1 µM, first compound 0.0316 µM
[6] = second compound 1 µM, first compound 0.1 µM
[7] = second compound 3.16 µM, first compound 0.0316 µM
[8] = second compound 3.16 µM, first compound 0.1 µM
[9] = second compound 10 µM, first compound 0.0316 µM
[10] = second compound 10 µM, first compound 0.1 µM
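Further: exposure lasted 7 days after dosing on day 3 of spheroid growth.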

SMILES: CC1(C)CCC(CN2CCN(c3ccc(C(=O)NS(=O)(=O)c4ccc(NCC5CCOCC5)c([N+](=O)[O-])c4)c(Oc4cnc5[nH]ccc5c4)c3)CC2)=C(c2ccc(Cl)cc2)C1 + Cc1ccccc1N=Nc1ccc(NC(=O)c2ccnn2C)c(C)c1
- IC50 (second compound 0.1 µM): > 10 µM
- IC50 (second compound 0.316 µM): > 10 µM
- IC50 (second compound 1 µM): > 10 µM
- IC50 (second compound 3.16 µM): > 10 µM
- IC50 (second compound 10 µM): > 10 µM
- viability, T/C [1]: 97.5%
- viability, T/C [2]: 90.6%
- viability, T/C (second compound 0.1 µM, first compound 0.316 µM): 97%
- viability, T/C (second compound 0.1 µM, first compound 1 µM): 99.9%
- viability, T/C (second compound 0.1 µM, first compound 3.16 µM): 88.5%
- viability, T/C (second compound 0.1 µM, first compound 10 µM): 61.4%
- viability, T/C [3]: 95.5%
- viability, T/C [4]: 85.9%
- viability, T/C (second compound 0.316 µM, first compound 0.316 µM): 88.9%
- viability, T/C (second compound 0.316 µM, first compound 1 µM): 85.3%
- viability, T/C (second compound 0.316 µM, first compound 3.16 µM): 83.9%
- viability, T/C (second compound 0.316 µM, first compound 10 µM): 54.9%
- viability, T/C [5]: 97.8%
- viability, T/C [6]: 85.4%
- viability, T/C (second compound 1 µM, first compound 0.316 µM): 82.5%
- viability, T/C (second compound 1 µM, first compound 1 µM): 80.2%
- viability, T/C (second compound 1 µM, first compound 3.16 µM): 79.7%
- viability, T/C (second compound 1 µM, first compound 10 µM): 67.1%
- viability, T/C [7]: 85.7%
- viability, T/C [8]: 82.6%
- viability, T/C (second compound 3.16 µM, first compound 0.316 µM): 87.4%
- viability, T/C (second compound 3.16 µM, first compound 1 µM): 84.8%
- viability, T/C (second compound 3.16 µM, first compound 3.16 µM): 76.5%
- viability, T/C (second compound 3.16 µM, first compound 10 µM): 57%
- viability, T/C [9]: 81.9%
- viability, T/C [10]: 85.1%
- viability, T/C (second compound 10 µM, first compound 0.316 µM): 82%
- viability, T/C (second compound 10 µM, first compound 1 µM): 77%
- viability, T/C (second compound 10 µM, first compound 3.16 µM): 74%
- viability, T/C (second compound 10 µM, first compound 10 µM): 54.7%

SMILES: CCN(c1cc(-c2ccc(CN3CCOCC3)cc2)cc(C(=O)NCc2c(C)cc(C)[nH]c2=O)c1C)C1CCOCC1 + Cc1ccccc1N=Nc1ccc(NC(=O)c2ccnn2C)c(C)c1
- IC50 (second compound 0.1 µM): > 3 µM
- IC50 (second compound 0.316 µM): > 3 µM
- IC50 (second compound 1 µM): > 3 µM
- IC50 (second compound 3.16 µM): > 3 µM
- IC50 (second compound 10 µM): > 3 µM
- viability, T/C (second compound 0.1 µM, first compound 0.00949 µM): 88.3%
- viability, T/C (second compound 0.1 µM, first compound 0.03 µM): 100%
- viability, T/C (second compound 0.1 µM, first compound 0.0949 µM): 88.5%
- viability, T/C (second compound 0.1 µM, first compound 0.3 µM): 91.7%
- viability, T/C (second compound 0.1 µM, first compound 0.949 µM): 80.3%
- viability, T/C (second compound 0.1 µM, first compound 3 µM): 84.3%
- viability, T/C (second compound 0.316 µM, first compound 0.00949 µM): 83.3%
- viability, T/C (second compound 0.316 µM, first compound 0.03 µM): 91.5%
- viability, T/C (second compound 0.316 µM, first compound 0.0949 µM): 86.4%
- viability, T/C (second compound 0.316 µM, first compound 0.3 µM): 85.3%
- viability, T/C (second compound 0.316 µM, first compound 0.949 µM): 88.3%
- viability, T/C (second compound 0.316 µM, first compound 3 µM): 86.1%
- viability, T/C (second compound 1 µM, first compound 0.00949 µM): 80.7%
- viability, T/C (second compound 1 µM, first compound 0.03 µM): 82.2%
- viability, T/C (second compound 1 µM, first compound 0.0949 µM): 84%
- viability, T/C (second compound 1 µM, first compound 0.3 µM): 78.3%
- viability, T/C (second compound 1 µM, first compound 0.949 µM): 82.8%
- viability, T/C (second compound 1 µM, first compound 3 µM): 96.4%
- viability, T/C (second compound 3.16 µM, first compound 0.00949 µM): 75.8%
- viability, T/C (second compound 3.16 µM, first compound 0.03 µM): 84.5%
- viability, T/C (second compound 3.16 µM, first compound 0.0949 µM): 83.4%
- viability, T/C (second compound 3.16 µM, first compound 0.3 µM): 85.5%
- viability, T/C (second compound 3.16 µM, first compound 0.949 µM): 88.4%
- viability, T/C (second compound 3.16 µM, first compound 3 µM): 79.2%
- viability, T/C (second compound 10 µM, first compound 0.00949 µM): 80%
- viability, T/C (second compound 10 µM, first compound 0.03 µM): 86.1%
- viability, T/C (second compound 10 µM, first compound 0.0949 µM): 75.6%
- viability, T/C (second compound 10 µM, first compound 0.3 µM): 75.2%
- viability, T/C (second compound 10 µM, first compound 0.949 µM): 77.6%
- viability, T/C (second compound 10 µM, first compound 3 µM): 81.4%

SMILES: Cn1ncnc1C1c2n[nH]c(=O)c3cc(F)cc(c23)NC1c1ccc(F)cc1 (stereo not given) + Cc1ccccc1N=Nc1ccc(NC(=O)c2ccnn2C)c(C)c1
- IC50 (second compound 0.1 µM): > 0.1 µM
- IC50 (second compound 0.316 µM): > 0.1 µM
- IC50 (second compound 1 µM): > 0.1 µM
- IC50 (second compound 3.16 µM): > 0.1 µM
- IC50 (second compound 10 µM): > 0.1 µM
- viability, T/C (second compound 0.1 µM, first compound 0.000316 µM): 98.1%
- viability, T/C (second compound 0.1 µM, first compound 0.001 µM): 97.5%
- viability, T/C (second compound 0.1 µM, first compound 0.00316 µM): 92.7%
- viability, T/C (second compound 0.1 µM, first compound 0.01 µM): 88.7%
- viability, T/C [1]: 89.2%
- viability, T/C [2]: 79.9%
- viability, T/C (second compound 0.316 µM, first compound 0.000316 µM): 76.4%
- viability, T/C (second compound 0.316 µM, first compound 0.001 µM): 85.7%
- viability, T/C (second compound 0.316 µM, first compound 0.00316 µM): 82.7%
- viability, T/C (second compound 0.316 µM, first compound 0.01 µM): 83.4%
- viability, T/C [3]: 71.9%
- viability, T/C [4]: 78.3%
- viability, T/C (second compound 1 µM, first compound 0.000316 µM): 87.5%
- viability, T/C (second compound 1 µM, first compound 0.001 µM): 87.1%
- viability, T/C (second compound 1 µM, first compound 0.00316 µM): 86.1%
- viability, T/C (second compound 1 µM, first compound 0.01 µM): 78.6%
- viability, T/C [5]: 81%
- viability, T/C [6]: 81.1%
- viability, T/C (second compound 3.16 µM, first compound 0.000316 µM): 82%
- viability, T/C (second compound 3.16 µM, first compound 0.001 µM): 80.1%
- viability, T/C (second compound 3.16 µM, first compound 0.00316 µM): 78.4%
- viability, T/C (second compound 3.16 µM, first compound 0.01 µM): 87.3%
- viability, T/C [7]: 84.6%
- viability, T/C [8]: 85.5%
- viability, T/C (second compound 10 µM, first compound 0.000316 µM): 70.4%
- viability, T/C (second compound 10 µM, first compound 0.001 µM): 98.1%
- viability, T/C (second compound 10 µM, first compound 0.00316 µM): 75.8%
- viability, T/C (second compound 10 µM, first compound 0.01 µM): 81.8%
- viability, T/C [9]: 63.6%
- viability, T/C [10]: 76%
